Measurements: US10143718B2, “Covalent inhibitors of dual oxidase 1 (DUOX 1)” (The University of Vermont and State Agricultural College, priority 2015, dated 2018)
Entries after “also recorded” stand apart in the source; their conditions may differ.

How the values were obtained:
[1] = test system: mouse tracheal epithelial cells; experiment: Allergen-induced cytokine secretion from cultured mouse tracheal epithelial cells; assay type: cell-based; conditions: for HDM-induced IL-33 secretion (culture media): mouse tracheal epithelial cells, pretreated 30 minutes, then HDM for 2 hrs
Protocol: (§1) Cells were pretreated with acrolein (ACR), cinnamaldehyde (CIN), curcumin (Curc) or sulforaphane (SFN) for 30 minutes and then stimulated with HDM for 2 hrs. IL-33 was measured in culture media.

DUOX1 [2] = target: T1, DUOX1 (Homo sapiens, UniProt Q9NRD9); experiment: Extracellular H2O2 production by HBE1 cells as a measure of DUOX1 activation (lactoperoxidase/tyrosine, HPLC); assay type: cell-based; conditions: for ATP-induced H2O2 production: electrophile 30 min prior to ATP stimulation, media collected after 10 min, 1-30 micromolar for food-derived electrophiles
T1 construct: endogenous in cells; host or cells: HBE1 (immortalized human bronchial epithelial cells)
T1 sequence (Q9NRD9 22-1551): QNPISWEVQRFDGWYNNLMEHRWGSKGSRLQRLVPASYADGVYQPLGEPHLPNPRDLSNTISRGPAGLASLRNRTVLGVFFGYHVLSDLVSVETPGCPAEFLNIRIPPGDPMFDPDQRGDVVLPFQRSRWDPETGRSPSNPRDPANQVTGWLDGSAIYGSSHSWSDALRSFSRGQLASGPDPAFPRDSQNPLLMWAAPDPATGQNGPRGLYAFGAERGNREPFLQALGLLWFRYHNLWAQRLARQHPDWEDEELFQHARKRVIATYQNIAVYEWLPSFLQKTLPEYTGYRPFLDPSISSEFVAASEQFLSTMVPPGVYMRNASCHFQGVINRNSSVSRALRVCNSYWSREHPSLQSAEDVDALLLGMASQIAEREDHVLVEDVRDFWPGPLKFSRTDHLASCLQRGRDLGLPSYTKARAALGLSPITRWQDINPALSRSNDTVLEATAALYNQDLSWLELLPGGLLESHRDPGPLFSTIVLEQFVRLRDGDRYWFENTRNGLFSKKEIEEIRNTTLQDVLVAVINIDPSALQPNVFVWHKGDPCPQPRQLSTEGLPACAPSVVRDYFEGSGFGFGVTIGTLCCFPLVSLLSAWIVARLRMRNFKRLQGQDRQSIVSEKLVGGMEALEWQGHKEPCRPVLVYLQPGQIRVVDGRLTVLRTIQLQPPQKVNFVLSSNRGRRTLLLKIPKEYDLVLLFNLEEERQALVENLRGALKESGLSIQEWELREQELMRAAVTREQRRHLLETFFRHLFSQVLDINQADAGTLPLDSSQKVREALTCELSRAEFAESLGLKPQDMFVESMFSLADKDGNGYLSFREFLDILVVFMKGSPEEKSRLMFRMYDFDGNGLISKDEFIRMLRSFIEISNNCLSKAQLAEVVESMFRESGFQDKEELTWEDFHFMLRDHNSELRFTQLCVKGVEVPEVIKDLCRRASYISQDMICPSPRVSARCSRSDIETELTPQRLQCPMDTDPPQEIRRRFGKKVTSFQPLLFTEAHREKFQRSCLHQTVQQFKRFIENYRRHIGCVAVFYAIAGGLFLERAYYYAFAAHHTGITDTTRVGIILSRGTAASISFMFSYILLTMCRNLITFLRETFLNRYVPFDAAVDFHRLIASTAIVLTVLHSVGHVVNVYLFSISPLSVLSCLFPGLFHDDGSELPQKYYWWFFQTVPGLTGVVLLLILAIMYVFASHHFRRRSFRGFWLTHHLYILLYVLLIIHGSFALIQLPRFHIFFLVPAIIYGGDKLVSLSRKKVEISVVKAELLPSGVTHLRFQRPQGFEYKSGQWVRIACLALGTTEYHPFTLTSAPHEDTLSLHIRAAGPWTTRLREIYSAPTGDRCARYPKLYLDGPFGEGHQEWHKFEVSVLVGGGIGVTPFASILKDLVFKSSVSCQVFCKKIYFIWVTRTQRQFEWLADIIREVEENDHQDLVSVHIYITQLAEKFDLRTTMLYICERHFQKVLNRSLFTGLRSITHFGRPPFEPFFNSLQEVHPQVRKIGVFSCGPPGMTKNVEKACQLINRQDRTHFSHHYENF
Excerpt: (§2) Based on identifying the involvement of Ca^2+-dependent DUOX1 activation and subsequent EGFR activation in allergen-induced IL-33 secretion from epithelial cells), the impact of acrolein exposure on allergen-induced Ca^2+ increases, extracellular H2O2 production (as a measure of DUOX1 activation) and EGFR tyrosine phosphorylation (as an indicator of EGFR activation) were studied.
Preliminary studies of DUOX1 targeting by electrophiles. Acrolein (2,3-propenal) is a highly reactive electrophile and a well-recognized environmental pollutant. In this example, other electrophilic compounds with similar chemical reactivity were determined to be capable of inhibiting allergen-induced DUOX1 activation. These studies were performed using immortalized human bronchoepithelial cells (HBE1) which were cultured and exposed to different electrophiles at various doses for 30 min prior to cell stimulation with HDM or with ATP (a known activator of DUOX1). Conditioned culture media was collected 10 min after cell stimulation and mixed for 15 min with 10 micrograms/mL lactoperoxidase (Sigma) and 1 mM tyrosine (Gibco), which results in formation of fluorescent dityrosine product as a function of H2O2 concentration, and was analyzed by HPLC with fluorescence detection and compared with exogenous standards based on similarly treated stock solutions of H2O2. The resulting data were corrected for basal H2O2 production by unstimulated cells and ATP-dependent H2O2 production in the presence of electrophiles were expressed relative to that by ATP alone (which was set at 100%).

[3] = test system: human bronchial epithelial cell line HBE1; experiment: Allergen-induced cytokine secretion from HBE1 cells; assay type: cell-based; conditions: acrolein pretreatment
Protocol: as §1

DUOX1 [4] = target: T1, DUOX1; experiment: ARP labeling of DUOX1 in HBE1 cells (biotin tag, avidin purification, western blot); assay type: binding; conditions: 0, 10, or 30 micromolar for 30 minutes
Excerpt: Since these various electrophiles act primarily by targeting susceptible cysteine residues by Michael addition, it was believed that they may directly target DUOX1 protein on one of its accessible cysteine residues within its extracellular peroxidase homology (PHD) domain. […] Moreover, since the PHD domain is unique to DUOX and not present in other NADPH oxidase isoforms, this targeting approach would avoid non-selective actions on these other isoforms, a common problem with most NADPH oxidase inhibitors currently in development. To determine whether acrolein-mediated inhibition of DUOX1 activity (FIG. 4) was associated with direct targeting of DUOX1 protein, HBE1 cells were treated with 0, 10, or 30 micromolar acrolein for 30 minutes and derivatized cell lysates with aldehyde reactive probe (ARP; Pierce), which converts acrolein-induced Michael adducts to induce a biotin tag. Biotin-tagged proteins were subsequently purified by avidin chromatography and collected biotin-tagged proteins (eluates) were then analyzed by 10% SDS-PAGE and western blotting with an alpha-DUOX1 antibody. Whole cell lysate were analyzed accordingly as loading controls.

[5] = test system: innate airway responses to HDM; experiment: Acrolein inhalation, then allergen challenge; BAL cytokines analyzed; assay type: in vivo; conditions: mice; acrolein 5 ppm, 4 hrs; then HDM (50 micrograms) or Alternaria alternata challenge; BAL 1 hour later
Protocol: Electrophilic compounds can suppress allergic inflammation and innate allergen responses. […] Mice were exposed to acrolein (5 ppm; 4 hrs, and subsequently challenged with HDM (50 micrograms), and BAL cytokines were analyzed 1 hour later.

EGFR = experiment: Allergen-induced EGFR tyrosine phosphorylation (EGFR activation); assay type: cell-based; conditions: non-toxic concentrations (3-30 micromolar)
Excerpt: as §2

[6] = test system: allergic inflammation and mucus metaplasia; experiment: Acrolein exposure in a mouse model of allergic asthma; assay type: in vivo; conditions: non-toxic doses of acrolein
cellular GSH = experiment: Cellular GSH depletion; assay type: cell-based; conditions: at concentrations inhibiting allergen-induced IL-33 secretion and H2O2 production
[7] = test system: allergen-mediated Ca^2+ increases; experiment: Allergen-induced Ca2+ increases in epithelial cells; assay type: cell-based; conditions: non-toxic concentrations (3-30 micromolar)
Excerpt: as §2

SMILES | HDM-induced IL-33 secretion (culture media) [1] | ATP-induced H2O2 production (DUOX1 [2]) | also measured
O=C/C=C/c1ccccc1 [cinnamaldehyde, (2E)-3-phenylprop-2-enal] | inhibited HDM-induced IL-33 secretion | capable of inhibiting ATP-mediated H2O2 production; also recorded: dose-dependent inhibition | –
C=CS(=O)(=O)Oc1ccccc1 [phenyl vinyl sulfonate] | – | dose-dependent inhibition | –
COc1cc(/C=C/C(=O)CC(=O)/C=C/c2ccc(O)c(OC)c2)ccc1O [curcumin, (1E,6E)-1,7-Bis(4-hydroxy-3-methoxyphenyl)-1,6-heptadiene-3,5-dione] | inhibited HDM-induced IL-33 secretion | capable of inhibiting ATP-mediated H2O2 production | –
C[S+]([O-])CCCCN=C=S (stereo not shown) [sulforaphane, 1-Isothiocyanato-4-methylsulfinylbutane] | inhibited HDM-induced IL-33 secretion | capable of inhibiting ATP-mediated H2O2 production; also recorded: dose-dependent inhibition | –
C=CC=O [acrolein, 2,3-propenal] | inhibited HDM-induced IL-33 secretion | dose-dependent inhibition | allergen-induced secretion of IL-33, IL-1α or IL-17E [3]: inhibits allergen-induced secretion of IL-33, IL-1α or IL-17E in a dose-dependent manner; ARP labeling of DUOX1 (direct adduct with DUOX1) (DUOX1 [4]): induced dose-dependent ARP labeling of DUOX1; production of IL-33, IL-1α or IL-17E (BAL cytokines) [5]: dramatically minimized production of IL-33, IL-1α or IL-17E; allergen-induced secretion of IL-33, IL-1α or IL-17E ([1]; cultured tracheal epithelial cells from mice, acrolein pretreatment): inhibits allergen-induced secretion of IL-33, IL-1α or IL-17E in a dose-dependent manner; allergen-induced EGFR autophosphorylation (EGFR): markedly suppressed allergen-induced EGFR autophosphorylation; allergic inflammation and mucus metaplasia [6]: dramatically suppress allergic inflammation and mucus metaplasia; cellular GSH depletion (cellular GSH): occurred in the absence of cellular GSH depletion; allergen-mediated Ca^2+ increases [7]: did not affect allergen-mediated Ca^2+ increases; allergen-induced extracellular H2O2 production (DUOX1 [2]; non-toxic concentrations (3-30 micromolar)): markedly suppressed; also recorded: inhibits allergen-induced H2O2 production
C=CS(=O)(=O)c1ccccc1 [phenyl vinyl sulfone] | – | Inhibitory effects | –
